Experimental data published in patent US7868188B2, “5-heteroaryl thiazoles and their use as PI3K inhibitors” (AstraZeneca AB, priority 2004, dated 2011).
Counter-ions that a name gives are not always drawn.

Key:
p110α Type Ia human PI3K = target: T1, p110α Type Ia human PI3K (Homo sapiens, UniProt P42336); experiment: Test (a) In Vitro PI3K Enzyme Assay (AlphaScreen); format: biochemical; conditions: read-out: IC50 versus p110α PI3K
T1 construct: full length DNA of each of the p110α, p110β and p110δ Type Ia human PI3K p110 isoforms; 6-His; made in house; host or cells: baculovirus expression system (Sf9 is named only for PI3Kγ)
T1 sequence (P42336 whole entry, canonical isoform): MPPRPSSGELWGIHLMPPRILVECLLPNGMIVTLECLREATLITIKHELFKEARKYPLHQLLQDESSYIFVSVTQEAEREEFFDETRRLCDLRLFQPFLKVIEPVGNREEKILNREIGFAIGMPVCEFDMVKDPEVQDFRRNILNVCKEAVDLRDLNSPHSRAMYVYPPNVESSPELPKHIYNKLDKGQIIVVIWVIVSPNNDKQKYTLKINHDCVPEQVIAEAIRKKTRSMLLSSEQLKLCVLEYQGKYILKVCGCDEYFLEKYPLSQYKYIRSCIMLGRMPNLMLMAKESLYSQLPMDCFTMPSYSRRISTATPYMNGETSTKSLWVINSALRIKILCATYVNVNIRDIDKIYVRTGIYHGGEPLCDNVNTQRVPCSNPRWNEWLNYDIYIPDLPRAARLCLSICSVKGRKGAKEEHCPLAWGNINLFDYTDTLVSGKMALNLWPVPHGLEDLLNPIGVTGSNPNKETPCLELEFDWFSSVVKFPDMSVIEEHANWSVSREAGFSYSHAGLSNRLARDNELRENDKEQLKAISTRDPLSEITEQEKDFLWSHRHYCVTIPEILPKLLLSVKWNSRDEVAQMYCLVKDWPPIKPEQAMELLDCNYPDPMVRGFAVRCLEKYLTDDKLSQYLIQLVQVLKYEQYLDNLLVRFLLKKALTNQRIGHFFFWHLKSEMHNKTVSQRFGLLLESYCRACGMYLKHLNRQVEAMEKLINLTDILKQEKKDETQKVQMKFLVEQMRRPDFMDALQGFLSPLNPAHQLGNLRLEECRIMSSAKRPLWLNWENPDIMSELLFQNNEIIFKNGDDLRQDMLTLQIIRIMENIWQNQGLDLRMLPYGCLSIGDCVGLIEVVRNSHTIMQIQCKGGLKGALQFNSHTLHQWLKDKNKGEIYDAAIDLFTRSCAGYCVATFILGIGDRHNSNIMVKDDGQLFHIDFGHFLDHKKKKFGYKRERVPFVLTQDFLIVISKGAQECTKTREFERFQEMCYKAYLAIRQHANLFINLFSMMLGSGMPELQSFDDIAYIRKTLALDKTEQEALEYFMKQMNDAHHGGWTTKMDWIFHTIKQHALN
T1 sequence (P27986 whole entry partner, canonical isoform): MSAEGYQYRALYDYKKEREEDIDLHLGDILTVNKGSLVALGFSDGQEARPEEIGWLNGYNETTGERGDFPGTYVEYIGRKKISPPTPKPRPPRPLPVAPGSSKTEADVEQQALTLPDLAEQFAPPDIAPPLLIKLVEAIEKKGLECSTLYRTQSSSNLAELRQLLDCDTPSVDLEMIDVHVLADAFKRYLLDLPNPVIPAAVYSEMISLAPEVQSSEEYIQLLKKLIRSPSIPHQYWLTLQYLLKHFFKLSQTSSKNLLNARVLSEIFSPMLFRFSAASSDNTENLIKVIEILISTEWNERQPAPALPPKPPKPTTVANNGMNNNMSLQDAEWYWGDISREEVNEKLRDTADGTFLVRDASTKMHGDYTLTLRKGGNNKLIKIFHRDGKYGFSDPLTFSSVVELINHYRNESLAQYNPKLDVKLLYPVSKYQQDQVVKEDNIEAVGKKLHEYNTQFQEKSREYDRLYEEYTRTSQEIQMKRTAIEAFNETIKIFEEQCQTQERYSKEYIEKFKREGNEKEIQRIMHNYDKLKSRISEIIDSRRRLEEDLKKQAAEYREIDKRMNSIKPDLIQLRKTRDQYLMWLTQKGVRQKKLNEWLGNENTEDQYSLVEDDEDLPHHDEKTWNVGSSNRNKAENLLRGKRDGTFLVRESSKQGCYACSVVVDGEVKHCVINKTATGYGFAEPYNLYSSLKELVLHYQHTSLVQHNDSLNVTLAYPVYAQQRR
Description: The assay used AlphaScreen technology (Gray et al., Analytical Biochemistry, 2003, 313: 234-245) to determine the ability of test compounds to inhibit phosphorylation by recombinant Type I PI3K enzymes of the lipid PI(4,5)P2.
DNA fragments encoding human PI3K catalytic and regulatory subunits were isolated from cDNA libraries using standard molecular biology and PCR cloning techniques. The selected DNA fragments were used to generate baculovirus expression vectors. In particular, full length DNA of each of the p110α, p110β and p110δ Type Ia human PI3K p110 isoforms (EMBL Accession Nos. HSU79143, S67334, Y10055 for p110α, p110β and p110δ respectively) were sub-cloned into a pDEST10 vector (Invitrogen Limited, Fountain Drive, Paisley, UK). The vector is a Gateway-adapted version of Fastbac1 containing a 6-His epitope tag. A truncated form of Type Ib human PI3K p110γ isoform corresponding to amino acid residues 144-1102 (EMBL Accession No. X8336A) and the full length human p85α regulatory subunit (EMBL Accession No. HSP13KIN) were also sub-cloned into pFastBac1 vector containing a 6-His epitope tag. The Type Ia p110 constructs were co-expressed with the p85α regulatory subunit. Following expression in the baculovirus system using standard baculovirus expression techniques, expressed proteins were purified using the His epitope tag using standard purification techniques.
DNA corresponding to amino acids 263 to 380 of human general receptor for phosphoinositides (Grp1) PH domain was isolated from a cDNA library using standard molecular biology and PCR cloning techniques. The resultant DNA fragment was sub-cloned into a pGEX 4T1 E. coli expression vector containing a GST epitope tag (Amersham Pharmacia Biotech, Rainham, Essex, UK) as described by Gray et al., Analytical Biochemistry, 2003, 313: 234-245). The GST-tagged Grp1 PH domain was expressed and purified using standard techniques.
Test compounds were prepared as […] stock solutions in DMSO and diluted into water as required to give a range of final assay concentrations. Aliquots (2 μl) of each compound dilution were placed into a well of a Greiner 384-well low volume (LV) white polystyrene plate (Greiner Bio-one, Brunel Way, Stonehouse, Gloucestershire, UK Catalogue No. 784075). […]
Biotinylated-DiC8-PI(3,4,5)P3 (50 nM; Cell Signals Inc., Catalogue No. 107), recombinant purified GST-Grp1 PH protein (2.5 nM) and AlphaScreen Anti-GST donor and acceptor beads (100 ng; Packard Bioscience Limited, Station Road, Pangbourne, Berkshire, UK, Catalogue No. 6760603M) were added and the assay plates were left for about 5 to 20 hours at room temperature in the dark. The resultant signals arising from laser light excitation at 680 nm were read using a Packard AlphaQuest instrument. […]

[1] = system: phosphorylation of Serine 473 in Akt (MDA-MB-468 cells); experiment: Test (c) In Vitro phospho-Ser473 Akt Assay; format: cell-based; conditions: Homo sapiens, read-out: IC50 versus Serine 473 in Akt
Method: This assay determines the ability of test compounds to inhibit phosphorylation of Serine 473 in Akt as assessed using Acumen Explorer technology (Acumen Bioscience Limited), a plate reader that can be used to rapidly quantitate features of images generated by laser-scanning.
A MDA-MB-468 human breast adenocarcinoma cell line (LGC Promochem, Teddington, Middlesex, UK, Catalogue No. HTB-132) was routinely maintained at 37° C. with 5% CO2 up to a confluency of 70-90% in DMEM containing 10% heat-inactivated FCS and 1% L-glutamine.
For the assay, the cells were detached from the culture flask using ‘Accutase’ (Innovative Cell Technologies Inc., San Diego, Calif., USA; Catalogue No. AT104) using standard tissue culture methods and resuspended in media to give 1.7×10^5 cells per ml. Aliquots (90 μl) were seeded into each of the inner 60 wells of a black Packard 96 well plate (PerkinElmer, Boston, Mass., USA; Catalogue No. 6005182) to give a density of ˜15000 cells per well. Aliquots (90 μl) of culture media were placed in the outer wells to prevent edge effects. The cells were incubated overnight at 37° C. with 5% CO2 to allow them to adhere.
On day 2, the cells were treated with test compounds and incubated for 2 hours at 37° C. with 5% CO2. Test compounds were prepared as 10 mM stock solutions in DMSO and serially diluted as required with growth media to give a range of concentrations that were 10-fold the required final test concentrations. Aliquots (10 μl) of each compound dilution were placed in a well (in triplicate) to give the final required concentrations. As a minimum response control, each plate contained wells having a final concentration of 100 μM LY294002 (Calbiochem, Beeston, UK, Catalogue No. 440202). As a maximum response control, wells contained 1% DMSO instead of test compound. Following incubation, the contents of the plates were […] by treatment with a 1.6% aqueous formaldehyde solution (Sigma, Poole, Dorset, UK, Catalogue No. F1635) at room temperature for 1 hour.
All subsequent aspiration and wash steps were carried out using a Tecan 96 well late washer (aspiration speed 10 mm/sec). The fixing solution was removed and the contents of the plates were washed with phosphate-buffered saline (PBS; 50 μl; Gibco, Catalogue No. 10010015). The contents of the plates were treated for 10 minutes at room temperature with an aliquot (50 μl) of a cell permeabilisation buffer consisting of a mixture of PBS and 0.5% Tween-20. […] An aliquot of PBS (50 μl) was added to each well and the plates were sealed with black plate sealers and the fluorescence signal was detected and analysed.
Fluorescence dose response data obtained with each compound were analysed and the degree of inhibition of Serine 473 in Akt was expressed as an IC50 value.

IC50 (p110α Type Ia human PI3K): ~10 nM
IC50 [1]: ~20 nM
Compound: CC(=O)Nc1nc(C)c(-c2cnc(Cl)c(NS(=O)(=O)c3ccccc3)c2)s1 [Example 13, N-{5-[6-Chloro-5-(phenylsulfonylamino)pyridin-3-yl]-4-methyl-1,3-thiazol-2-yl}acetamide trifluoroacetate]
